Data on 22 compounds can be found in PubChem BioAssay (NCI).

Structures are written as SMILES. “And” between values parts separate entries of the source, which are not always exact repeats. Equal values may be shown once.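 Assay format: 96-well plates, 48-hour exposure. GI50 is the concentration that inhibits growth by half. The concentration for full growth arrest is given as TGI.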

Among the test systems are COLO 205 colon; EKVX NSCLC; HCT-116 colon; HOP-92 NSCLC; IGROV1 ovarian; NCI-H23 lung; RXF 393 renal; SK-MEL-28 melanoma; SK-MEL-5 melanoma; PC-3 prostate.
Common to all, as to assay: growth of human tumour cells (NCI), 48 h

Turning to `COc1cc(C)c(CC/C(C)=C/Cc2cc(O)ccc2O)c(C)c1C`, the TGI in the test on COLO 205 colon, in the test on EKVX NSCLC, in the test with HCT-116 colon, in the test on HOP-92 NSCLC, with IGROV1 ovarian and in the test on NCI-H23 lung was > 25 µM in each case. Moreover, the TGI with RXF 393 renal, in the test on SK-MEL-28 melanoma and in the test with SK-MEL-5 melanoma was > 25 µM each time.

For the compound `CCCCCCCCCCCCCCCCCCOc1ccccc1CC(=O)NCC[N+]1(C)CCOCC1`, the GI50 in the test with EKVX NSCLC is 8.62 µM; with HCT-116 colon, 4.71 µM; in the test on HOP-92 NSCLC it was 1.03 µM; in the test on NCI-H23 lung it was 3.03 µM; in the test with SK-MEL-28 melanoma it was 7.69 µM; in the test on SK-MEL-5 melanoma it was 3 µM. The TGI is 56.2 µM in the test with EKVX NSCLC; > 100 µM in the test on HCT-116 colon; 3.78 µM with HOP-92 NSCLC; 14.2 µM in the test with NCI-H23 lung; 49.8 µM in the test on SK-MEL-28 melanoma; 16.1 µM with SK-MEL-5 melanoma.

`CN(C)c1nc(Oc2nc(N(C)C)nc(N(C)C)n2)nc(N(C)C)n1`: the TGI in the test on COLO 205 colon, in the test on EKVX NSCLC, in the test on HCT-116 colon, in the test with HOP-92 NSCLC, in the test with IGROV1 ovarian and in the test with NCI-H23 lung was > 100 µM in each case. The TGI in the test on RXF 393 renal, with SK-MEL-28 melanoma and with SK-MEL-5 melanoma was > 100 µM in each case.

In the case of `Cc1nc2ccccc2nc1CC(=O)C(=O)Nc1ccc(Cl)cc1Cl`, the TGI with COLO 205 colon, in the test with EKVX NSCLC, in the test with HCT-116 colon, with HOP-92 NSCLC, in the test on IGROV1 ovarian and with NCI-H23 lung was > 100 µM each time. Further, the TGI in the test on RXF 393 renal, with SK-MEL-28 melanoma and in the test with SK-MEL-5 melanoma was > 100 µM each time.

Take `c1c[nH]c(-c2cccc3nsnc23)c1`: the TGI with COLO 205 colon, in the test on EKVX NSCLC, in the test with HCT-116 colon, in the test with IGROV1 ovarian, with NCI-H23 lung and in the test with PC-3 prostate was > 100 µM each time. Also, the TGI in the test with RXF 393 renal, in the test on SK-MEL-28 melanoma and in the test on SK-MEL-5 melanoma was > 100 µM throughout.

For the compound `c1ccc(-c2c(-c3ccccc3)[n+](Cc3ccc4ccccc4c3)c(-c3ccc(-c4nc5ccccc5s4)cc3)n2Cc2ccc3ccccc3c2)cc1`, the GI50 was 0.187 µM in the test on EKVX NSCLC; 0.121 µM in the test with IGROV1 ovarian; 0.0933 µM with NCI-H23 lung; 0.111 µM in the test on PC-3 prostate; 0.368 µM with SK-MEL-28 melanoma. Besides, the TGI in the test on EKVX NSCLC came out at 1.19 µM; in the test on IGROV1 ovarian, 0.408 µM; in the test with NCI-H23 lung it was 0.759 µM; in the test on PC-3 prostate, 0.528 µM; with SK-MEL-28 melanoma, 1.57 µM.

In the case of `Nc1ncnc2c1nnn2C1C=CC(CP(=O)(O)O)C1` (stereo not drawn), the TGI with COLO 205 colon, with EKVX NSCLC, in the test on HCT-116 colon, in the test with IGROV1 ovarian, with NCI-H23 lung and with PC-3 prostate was > 100 µM in each case. The TGI with RXF 393 renal, in the test on SK-MEL-28 melanoma and with SK-MEL-5 melanoma was > 100 µM throughout.

Turning to `C[C@]12CCC3[C@@H](CCC45OC4C(=O)CC[C@]35C)C1Cc1cnn(-c3ccc(F)cc3)c1N2` (stereo partly drawn), the TGI is > 100 µM in the test on COLO 205 colon; > 100 µM with EKVX NSCLC; 29 µM with HCT-116 colon; 54.4 µM in the test with NCI-H23 lung; 87.2 µM with RXF 393 renal; 85.2 µM in the test with SK-MEL-28 melanoma. In addition, in the test with SK-MEL-5 melanoma, the TGI was > 100 µM.

As to `Cc1ccccc1-c1nc2c(N)nc(N)nc2nc1N`, the TGI in the test on COLO 205 colon, in the test on EKVX NSCLC, in the test on HCT-116 colon, in the test with IGROV1 ovarian, in the test on NCI-H23 lung and with PC-3 prostate was > 100 µM throughout. The TGI in the test with SK-MEL-28 melanoma and in the test on SK-MEL-5 melanoma was > 100 µM in each case.

Take `O=C(COc1ccc(OCC(=O)N/N=C/c2ccc(-c3ccc(Cl)cc3Cl)o2)c(Cl)c1)N/N=C/c1ccc(-c2ccc(Cl)cc2Cl)o1`: the TGI with COLO 205 colon is > 100 µM; with EKVX NSCLC, 89.5 µM; in the test on HCT-116 colon, > 100 µM; in the test on IGROV1 ovarian it was > 100 µM; in the test on NCI-H23 lung, > 100 µM; in the test with PC-3 prostate, > 100 µM. The TGI is 81.2 µM in the test on RXF 393 renal, > 100 µM in the test with SK-MEL-28 melanoma and > 100 µM with SK-MEL-5 melanoma.

`O=[N+]([O-])c1cccc(C2=NN(c3ccccc3)C3c4cc(Br)ccc4OCC23)c1` (stereo not drawn): the TGI in the test on COLO 205 colon, in the test on EKVX NSCLC, with HCT-116 colon, with HOP-92 NSCLC, in the test with IGROV1 ovarian and with NCI-H23 lung was > 100 µM in each case. In addition, the TGI in the test on RXF 393 renal, with SK-MEL-28 melanoma and with SK-MEL-5 melanoma was > 100 µM each time.

Regarding `O=[N+]([O-])c1ccc(C[P+]2(c3ccccc3)CCCCC2)cc1`, the TGI in the test on COLO 205 colon, in the test on EKVX NSCLC, with HCT-116 colon, with IGROV1 ovarian, in the test with NCI-H23 lung and in the test with RXF 393 renal was > 100 µM in each case. In addition, the TGI with SK-MEL-28 melanoma and in the test with SK-MEL-5 melanoma was > 100 µM in each case.

Take `Cc1c2ccnc(C(N)=O)c2c(C)c2c1[nH]c1ccccc12`: the TGI in the test with COLO 205 colon was 50 µM and > 100 µM; in the test with EKVX NSCLC, 35.3 µM and 46.8 µM; with HCT-116 colon, 17.4 µM; in the test on HOP-92 NSCLC it was 12 µM and 53.2 µM; in the test with IGROV1 ovarian, 50 µM and 27.4 µM; in the test with NCI-H23 lung, 24.4 µM and 18.9 µM. The TGI with RXF 393 renal is 16.6 µM; in the test with SK-MEL-28 melanoma it was 19.4 µM and 20.1 µM; in the test on SK-MEL-5 melanoma, 13.6 µM. Also, the GI50 in the test with EKVX NSCLC is 6.56 µM; in the test with HOP-92 NSCLC it was 2.96 µM and 11.5 µM; in the test with IGROV1 ovarian, 7.49 µM; in the test on NCI-H23 lung it was 3.41 µM; with SK-MEL-28 melanoma, 5.31 µM.

On to `CCCCCCCC(=O)OCC(COC(=O)C(C)(C)C)OC(=O)Cc1ccccc1` (stereo not drawn), for which the TGI in the test with COLO 205 colon, in the test on HCT-116 colon, in the test on HOP-92 NSCLC, in the test on IGROV1 ovarian, in the test on NCI-H23 lung and in the test with SK-MEL-28 melanoma was > 100 µM in each case. Besides, the TGI with SK-MEL-5 melanoma was > 100 µM.

Regarding `COCOc1ccc(C(=O)Oc2cccc3c2OC(C)(C)O3)c(OCOC)c1`, the TGI in the test on COLO 205 colon was > 100 µM; with EKVX NSCLC it was > 100 µM; with HCT-116 colon, > 100 µM; in the test with HOP-92 NSCLC, > 100 µM; in the test with IGROV1 ovarian it was > 100 µM; in the test on NCI-H23 lung, 26.3 µM. For the same compound, the TGI with RXF 393 renal, in the test with SK-MEL-28 melanoma and in the test on SK-MEL-5 melanoma was > 100 µM in each case.

For the compound `Cc1nc(N)c(N2CCN(C#N)CC2)c(=O)[nH]1`, the TGI with COLO 205 colon, in the test on EKVX NSCLC, in the test with HCT-116 colon, in the test with NCI-H23 lung, in the test with PC-3 prostate and in the test on SK-MEL-28 melanoma was > 100 µM in each case.

As to `CC1=NN(C(=O)Cc2ccccc2)C(=O)/C1=C\c1ccc(O)cc1`, the TGI with COLO 205 colon, in the test with EKVX NSCLC, in the test with HCT-116 colon, with HOP-92 NSCLC, in the test on IGROV1 ovarian and in the test with NCI-H23 lung was > 100 µM throughout. The TGI with RXF 393 renal, in the test on SK-MEL-28 melanoma and in the test with SK-MEL-5 melanoma was > 100 µM throughout.

As to `CCOC(=O)C1C(c2ccc(Cl)cc2Cl)NC(c2ccc(C)cc2)C(C(=O)OC)S1(=O)=O` (stereo not drawn), the TGI in the test with COLO 205 colon, in the test with EKVX NSCLC, in the test on HOP-92 NSCLC, with IGROV1 ovarian, in the test on NCI-H23 lung and in the test on RXF 393 renal was > 100 µM each time. For the same compound, the TGI in the test with SK-MEL-28 melanoma and in the test with SK-MEL-5 melanoma was > 100 µM each time.

In the case of `Cc1c(N2CCOCC2)nc2ccc(Cl)cc2c1-c1ccccc1`, the TGI in the test with COLO 205 colon, with EKVX NSCLC, in the test on HCT-116 colon, in the test with HOP-92 NSCLC, with IGROV1 ovarian and in the test on NCI-H23 lung was > 100 µM throughout. Also, the values for the TGI in the test with RXF 393 renal, in the test with SK-MEL-28 melanoma and with SK-MEL-5 melanoma were > 100 µM, > 100 µM and 65.7 µM, respectively.

In the case of `COc1ccc2c(c1)c1c(n2CCN2CCCCC2)-c2cccc(OC)c2CC1`, the TGI in the test on COLO 205 colon was 39 µM; in the test with EKVX NSCLC, 42 µM; with HCT-116 colon it was > 100 µM; in the test with IGROV1 ovarian it was 29.8 µM; in the test with NCI-H23 lung, 32.1 µM; in the test on PC-3 prostate, 35.6 µM. Further, the figures for the TGI with SK-MEL-28 melanoma and in the test on SK-MEL-5 melanoma were 35 µM and 45.5 µM, respectively.

As to `COc1cc2ccc3c4cc(OC)c(OC)cc4c[n+](C)c3c2cc1O`, the TGI with COLO 205 colon, with EKVX NSCLC, with HCT-116 colon, with HOP-92 NSCLC, with IGROV1 ovarian and in the test with NCI-H23 lung was > 100 µM throughout. Moreover, the TGI in the test with RXF 393 renal, in the test with SK-MEL-28 melanoma and with SK-MEL-5 melanoma was > 100 µM in each case.

For the compound `Cc1cc([N+](=O)[O-])c(C)c2c1[nH]c1ccc(Cl)cc12`, the TGI with COLO 205 colon, in the test on EKVX NSCLC, in the test on HCT-116 colon, with NCI-H23 lung, in the test with SK-MEL-28 melanoma and with SK-MEL-5 melanoma was > 100 µM in each case.
